{"source": "patent US20130143244A1", "about": "“SOX9 AS A MARKER FOR AGGRESSIVE CANCER” (ADMINISTRATORS OF THE TULANE EDUCATIONAL FUND, priority 2010, published 2013)", "molecules": {"B1": {"name": "wnt3a: recombinant wnt3a protein (R&D Systems) used to activate wnt signaling (protein, UniProt P56704 19-352, looked up)", "Protein Wnt-3a": "SYPIWWSLAVGPQYSSLGSQPILCASIPGLVPKQLRFCRNYVEIMPSVAEGIKIGIQECQHQFRGRRWNCTTVHDSLAIFGPVLDKATRESAFVHAIASAGVAFAVTRSCAEGTAAICGCSSRHQGSPGKGWKWGGCSEDIEFGGMVSREFADARENRPDARSAMNRHNNEAGRQAIASHMHLKCKCHGLSGSCEVKTCWWSQPDFRAIGDFLKDKYDSASEMVVEKHRESRGWVETLRPRYTYFKVPTERDLVYYEASPNFCEPNPETGSFGTRDRTCNVSSHGIDGCDLLCCGRGHNARAERRREKCRCVFHWCCYVSCQECTRVYDVHTCK"}}, "format_in_all_cases": "cell-based, human", "key": {"[1]": {"system": "SOX9 localization in MDA-MB-231 cells", "experiment": "Immunofluorescence microscopy of SOX9 localization", "conditions": "serum-deprived MDA-MB-231 cells, TSA 500 nM or LMB 5 ng/mL for 4 h, then 10% FBS", "experimental": "Cells were grown on sterile glass coverslips in 6 well plates to 30%-40% confluence in their respective media, serum starved for the next 24 h treated with 1 nM all trans retinoic acid, 500 nM TSA or 5 ng/mL Leptomycin B for 4 h and then with 10% FBS for 2-3 h. Coverslips were washed three times in PBS and fixed in 4% paraformaldehyde for 30 minutes. After washing the coverslips again with PBS three times, they were blocked with 10% whole goat serum (Santa Cruz Biotechnology, Inc., Santa Cruz, Calif.) for thirty minutes. Cells were stained with anti-SOX9 (1:1,000 dil) antibody or anti-DDK tag antibody (OriGene Technologies, Inc., Rockville, Md.) and visualized using alexa 488-conjugated or 594-conjugated secondary (1:500 dilution) antibody (Molecular Probes®, Invitrogen Corp., Carlsbad, Calif.) as described previously (Chakravarty et al., Exp Biol Med (Maywood), 234:372-86 (2009)). For analysis, cells were visualized with a Nikon N300 microscope (Nikon Instruments Inc., Melville, N.Y.). Filter sets for FITC and DAPI were used to capture images that were then analyzed with Elements software. To establish that response to growth arrest signals was dependent on SOX9's cellular localization, both cell lines were also cultured on coverslips, serum starved for 24 h, and subsequently exposed to 10% FBS and stained with SOX9 antibody as described above."}, "[2]": {"system": "MDA-MB-231 cells", "experiment": "Gene expression profiling using RT2 Profiler PCR Array", "conditions": "MDA-MB-231 cells serum starved, TSA for 4 h, then FBS", "experimental": "MDA-MB-231 cells with or without TSA treatment were harvested for total RNA using Trizol (Invitrogen) and reverse transcribed using RT^2 first strand kit from SABiosciences (Frederick, Md.). Real-Time PCR was performed according to the RT^2 Profiler PCR Array User manual (SABiosciences) using SYBR Green PCR Master Mix for the CFX96™ Real-Time PCR detection system from Bio-Rad (Bio-Rad Laboratories, Inc., Hercules, Calif.). The PAHS-090C PCR Array was repeated twice for each cDNA sample and the data were analyzed using Excel-based PCR Array Data Analysis Templates from SABiosciences.\nThe average Ct value of each gene obtained from duplicate experiments was used to calculate its expression value, which was expressed as 2−ΔCt (ΔCt=CtGOI−Ave CtHKG; GOI=gene of interest, HKG=housekeeping gene, Ave CtHKG=average Ct value of five housekeeping genes)."}, "[3]": {"system": "MDA-MB-231 cells", "experiment": "MTT cytotoxicity assay", "conditions": "for growth of MDA-MB-231 cells relative to control (cell viability by MTT): serum starved, increasing drug concentrations (TSA 50-500 nM, LMB 0.5-10 ng/ml), 48 h; for cell death: serum starved MDA-MB-231 cells, increasing drug concentrations", "experimental": "MTT cytotoxicity assay: MDA-MB-231 or MCF7 cells were plated onto 96 well plates at a density of 2.5×10^3 cells/well. Cells were allowed to attach overnight and serum starved for the next 24 h. Following starvation, cells were treated with increasing concentration of Trichostatin A (50-500 nM) or Leptomycin B (0.5-10 ng/ml) and allowed to grow for next 24 h. At the end of 24 h drug treatment, media was supplemented with an equal volume of media with 20% FBS. An MTT assay was used to determine cell viability after exposure to test compounds for 48 h, including the 24 h of incubation with 10% FBS. Briefly, 10 μl of MTT reagent (5 mg/ml in PBS) was added to each well, the plate was incubated for 2-4 h to allow for the formation of formazan crystals, the media was aspirated from all wells and crystals were dissolved with 150 μl DMSO. The optical densities were measured at 540 nm on a BioTek uQuant microplate spectrophotometer (BioTek Instruments, Inc., Winooski, Vt.) and the percent of surviving cells was calculated with respect to control or untreated cells. For the modified MTT assay, the classical MTT reagent was replaced with WST-8, which produces a water soluble formazan dye upon bioreduction. For this assay, at the end of drug treatment, cells were incubated with 10 μl of WST-8 per 100 μl media/per well for 2-3 h. O.D. at 450 nm was measured to determine cell viability in each well."}, "[4]": {"system": "p21, SOX9 and acetylated SOX9 in MDA-MB-231 cells", "experiment": "Immunoblot and immunoprecipitation analysis of p21, SOX9 and acetylated SOX9", "conditions": "for p21 expression, arbitrary units normalized to actin level, change compared to cells grown in 10% FBS medium: TSA 500 nM or LMB 5 ng/ml for 4 h", "experimental": "Asynchronous cell populations at a density of 50-60% in 6-well plates were serum deprived for 24 h, treated with TSA (500 nM), or Leptomycin B (5 ng/ml) for the next 4 h and then cultured in the presence of 10% FBS for 2-3 h before harvesting. Immunoblotting was performed by solubilizing cells in RIPA buffer, electrophoresing on 10% SDS-PAGE gels, incubating with primary antibodies for 1-2 h at room temperature, and detecting primary antibodies using HRP-conjugated secondary antibodies (1:30,000 dilution, Santa Cruz Biotechnology Inc.) and Amersham® ECU® (GE Healthcare Bio-Sciences Corp., Piscataway, N.J.) as described in Wang et al., Clin Cancer Res., 12:4755-65 (2006). Western blots were quantified by calculating an integrated density value (IDV) for each band using Bio-Rad's Gel Doc™ system and normalizing to the IDV of actin. For immunoprecipitation, total protein lysates were centrifuged at 14,000×g for 15 minutes at 4° C. Supernatants were then transferred to fresh centrifuge tubes and precleared with 50 μl of protein A Sepharose™ bead slurry (50%) per 1 ml of cell lysate. Incubation was continued at 4° C. for 30 minutes on a rocker or orbital shaker. Protein A beads were then collected by centrifugation at 14,000×g at 4° C. for 5 minutes. Protein concentration of the saved supernatant was determined after removing the beads. Approximately 500 μg to 1 mg of protein from each sample was transferred to fresh centrifuge tubes and diluted to 1 ml with ice cold PBS to reduce the concentration of the detergents in the buffer. The diluted lysates were incubated with 2 μg/mg protein anti-SOX9 antibody and rotated overnight at 4° C. Immuno complexes were captured with slurry of protein A-Sepharose™ CL-4B (Sigma) pre-washed with BSA through rotations for 1 h at 4° C. and washed three times with ice-cold modified RIPA buffer (Tris-HCl: 50 mM, pH 7.4, NP-40:1%, Na-deoxycholate: 0.25%, NaCl: 150 mM, EDTA: 1 mM, PMSF: 1 mM, NaF: 1 mM). Washed Sepharose™ beads were resuspended in 60 μl RIPA buffer with SDS dye and resolved on 10% SDS-PAGE gels. Blotted proteins were immunoprobed with antilysine antibody to detect the levels of acetylated SOX9."}, "[5]": {"system": "beta catenin reporter (TOP-flash/FOP-flash) in MDA-MB-231 cells", "experiment": "TOP-flash / FOP-flash beta catenin reporter transfection experiment", "experimental": "The Col2a1 reporter gene (Lefebvre et al., Mol Cell Biol, 17:2336-46 (1997)) was kindly provided by Prof. Benoit deCrombrugghe's laboratory. The beta catenin reporter set containing the plasmids TOP-flash and FOP-flash were made available by Prof. Randall Moon's laboratory.\nFor transfection, MDA-MB-231 cells were cultivated at 2.5×10^5 cells per well in 6-well plates. Twenty four hours later, transfection was performed using lipofectamine 2000 (Invitrogen) according the manufacturer's instruction. Cells in 6-well plates were transfected with 0.250 μg DNA of Col2a1 reporter or […] DNA of Top-flash or Fop-flash reporters, 10 ng of Renilla luciferase and 1.0 μg of wild type DDK tagged SOX9 per well. Top-flash or Fop-flash reporter transfected wells were treated with 15-ng/ml recombinant wnt3a protein (R&D Systems, Inc., Minneapolis, Minn.) after 24 h of transfection. All transfected cells were lysed directly in Promega's Dual Luciferase lysis buffer and collected with a cell scrape. Luciferase measurement was performed using a Optocomp I luminometer (MGM Instruments, Inc., Hamden, Conn.). Cellular localization of wild type DDK tagged SOX9 was detected using immunofluorescence as described above."}}, "note": "Entries after “also recorded” stand apart in the source; their conditions may differ.", "data": [{"molecule": "CC(/C=C/C(=O)NO)=C\\[C@@H](C)C(=O)c1ccc(N(C)C)cc1", "note": "[TSA, [R-(E,E)]-7-[4-(Dimethylamino)phenyl]-Nhydroxy-4,6-dimethyl-7-oxo-2,4-heptadienamide]", "values": [{"measurement": "nuclear localization of SOX9", "setting": "[1]", "value": "marked increase in nuclear SOX9 staining; also recorded: enhanced nuclear localization of SOX9"}, {"measurement": "gene expression profile with versus without TSA treatment", "setting": "[2]", "value": "several fold higher expression of genes involved in growth, development and differentiation and downregulation of migration, motility and cytoskeletal genes"}, {"measurement": "growth of MDA-MB-231 cells relative to control (cell viability by MTT)", "setting": "[3]", "value": "decrease in proliferative potential; also recorded: markedly heightened sensitivity to growth inhibition"}, {"measurement": "cell death", "setting": "[3]", "value": "dose dependent increase in cell death"}, {"measurement": "acetylation of endogenous SOX9 protein", "setting": "[4]; TSA 500 nM for 4 h, immunoprecipitation and anti acetylated lysine blot", "value": "enhanced acetylation of endogenous SOX9 protein"}, {"measurement": "endogenous SOX9 protein expression, arbitrary units normalized to actin level, increase", "setting": "[4]; TSA 500 nM for 4 h, western blot", "value": 1.2, "unit": "fold"}, {"measurement": "p21 expression, arbitrary units normalized to actin level, change compared to cells grown in 10% FBS medium", "setting": "[4]; western blot", "value": 1.3, "unit": "fold"}]}, {"molecule": "CCC(=C/[C@H](C)C/C=C/C(C)=C/[C@@H](C)C(=O)[C@@H](C)[C@H](O)[C@@H](C)C/C(C)=C/C(=O)O)/C=C/[C@@H]1OC(=O)C=C[C@@H]1C", "note": "[LMB, leptomycin B]", "values": [{"measurement": "nuclear localization of SOX9", "setting": "[1]", "value": "unable to retain SOX9 in the nucleus; also recorded: unaffected"}, {"measurement": "growth of MDA-MB-231 cells relative to control (cell viability by MTT)", "setting": "[3]", "value": "unaffected"}, {"measurement": "cell death", "setting": "[3]", "value": "unable to retain SOX9 in the nucleus or induce cell death; also recorded: unaffected"}, {"measurement": "p21 expression, arbitrary units normalized to actin level, change compared to cells grown in 10% FBS medium", "setting": "[4]; western blot", "value": 0.08, "unit": "fold"}]}, {"molecule": "B1", "values": [{"measurement": "induction of TOP-flash reporter, wnt3a treated versus untreated cells", "setting": "[5]; MDA-MB-231 cells transfected with wild type (nuclear) SOX9, 15 ng/ml recombinant wnt3a", "value": 22, "unit": "fold"}, {"measurement": "FOP-FLASH reporter activity, wnt3a treated versus untreated cells", "setting": "[5]; MDA-MB-231 cells, mutated LEF-1/TCF-binding sites control vector", "value": "unchanged"}]}]}
